Ends that are not written are not given here.
Experiments:
HCT116-p53+/+ cells = test: WST-1 cell viability / cell growth assay in HCT116-p53+/+ cells; format: cell-based; conditions: plasmid transfection, data not shown
[1] = test system: p53 pathway in SW480 cells (p53 mt); test: Activation of the p53 pathway (western blot) in SW480 cells; format: cell-based; conditions: SW480 cells containing inactive mutated p53, plasmid transfection
Procedure: (§1) Figure 4 Functional analyses of GFP-MIP in living cells. […] (A) Immunoprecipitation assays with anti-GFP were performed followed by western blot with an anti-MDM2 antibody. I, input; F, flow-through; B, beads. (B) The whole cell lysates were analyzed by western blot with antibodies against p53, MDM2, p21 and β-actin. (C) mRNA levels of p53, MDM2, p21 and GAPDH were determined by quantitative reverse transcription-PCR using total RNA extracted from the cells. GAPDH was used for normalization.
(§2) Whole cell lysate was analyzed by western blot analysis with antibodies against p53 (Cell signaling, Beverly, MA, […]), MDM2 (SMP14, Santa Cruz), p21 (SX118, Pharmingen, San Diego, CA, USA) and β-actin (AC-15, Sigma). The blots were developed using an ECL chemiluminescence kit (GE Healthcare, Waukesha, WI, USA).

[2] = test system: p53 pathway in HCT116-p53+/+ cells; test: Activation of the p53 pathway (western blot, quantitative RT-PCR) in HCT116-p53+/+ cells; format: cell-based, human; conditions: plasmid transfection
Procedure: as §1
Figure 5 Activation of the p53 pathway by inhibiting the MDM2-p53 interaction. […] After 48 h, immunoprecipitation assay with anti-FLAG antibody was performed followed by western blot with anti-MDM2 or anti-FLAG antibody. […] After 24 h, the whole cell lysates were analyzed by western blot with antibodies against p53, p21 and β-actin. […] After 24 h, mRNA levels of p53, MDM2, p21 and GAPDH were determined by quantitative reverse transcription-PCR using total RNA extracted from the cells. GAPDH was used for normalization.
as §2
Total RNA was extracted with the RNeasy mini kit from cells. The RNA was used as template for the real-time RT-PCR reaction with the QuantiTect SYBR Green RT-PCR kit (Qiagen) using the p53F and p53R primer set, the mdm2F and mdm2R primer set or the p21F and p21R primer set. The GAPDH gene was used for normalization with the Light cycler primer sets (Roche, Basel, Switzerland).

MDM2-p53 interaction = target: T1, MDM2-p53 interaction (Homo sapiens, UniProt Q00987); test: ELISA of MDM2 (7-300) bound to immobilized His6-p53 in the presence of synthetic peptides; format: binding
T1 construct: In vitro-translated MDM2 (7–300 amino acids) mixed with the synthetic peptides; made in house; host or cells: MDM2: in vitro translated (wheat germ cell-free system for the bait preparation); p53: E. coli BL21 (DE3) codon+
Procedure: (§3) The resulting plasmid was transformed into the E. coli strain BL21 (DE3) codon+. The cells were grown in LB with 50 µg/ml carbenicillin at 37°C to an optical density (OD600) of 0.5 and induced with 1 mM IPTG for 6 h. […] After washing with PBST, the plates were blocked with 5% skim milk at 4°C for 30 min. […] The RNA was purified with the RNeasy mini kit and in vitro-translated in a wheat germ cell-free translation system to produce MDMX protein.

MDMX-p53 interaction = target: T2, MDMX-p53 interaction (Homo sapiens, UniProt O15151); test: ELISA of MDMX (1-200) bound to immobilized His6-p53 in the presence of synthetic peptides; format: binding
T2 construct: the cDNA of MDMX (1–200 amino acids) was amplified by PCR; made in house; host or cells: MDMX: wheat germ cell-free translation system; p53: E. coli BL21 (DE3) codon+
T2 sequence (O15151 1-200): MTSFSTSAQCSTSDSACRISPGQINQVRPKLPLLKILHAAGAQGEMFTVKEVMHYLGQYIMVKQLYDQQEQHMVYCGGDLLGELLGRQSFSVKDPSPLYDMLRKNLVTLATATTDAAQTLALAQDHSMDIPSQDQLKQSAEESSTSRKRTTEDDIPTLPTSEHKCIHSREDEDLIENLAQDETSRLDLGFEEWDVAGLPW
Procedure: as §3

MDMX (1–200 amino acids) = target: T3, MDMX (1–200 amino acids) (human, UniProt O15151 1-200); test: ELISA; competition: synthetic peptide at various concentrations mixed with in vitro-translated MDM2 (7–300) or MDMX (1–200) in binding buffer (5% skim milk, 10% glycerol), added to His6-p53 immobilized on copper-coated plates, 1 h at room temperature; detection with anti-MDM2 (SMP14) or anti-FLAG M2; conditions: one partner purified
T3 construct: MDMX, residues 1-200, cDNA amplified from a Human Mosaic cDNA template; also called MDMX(1–200)-FLAG; source: in vitro translated (wheat germ cell-free translation system)
T3 sequence (looked up): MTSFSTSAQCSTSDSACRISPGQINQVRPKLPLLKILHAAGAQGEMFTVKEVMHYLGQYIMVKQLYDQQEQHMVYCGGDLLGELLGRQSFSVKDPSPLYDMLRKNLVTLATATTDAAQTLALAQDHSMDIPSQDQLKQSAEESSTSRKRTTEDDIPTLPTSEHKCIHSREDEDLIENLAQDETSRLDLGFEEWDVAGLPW

[3] = target: T4, MDM2_(7–300) fused to the TAP tag (human (A549 cell-derived cDNA library), UniProt Q00987 7-300); test: as above; conditions: one partner purified
T4 construct: MDM2, residues 7-300, cDNA amplified from an A549 cell-derived cDNA library; primers and plasmid are named MDM(1–294) / pCMV-MDM294-CBPzz; The ELISA methods name only 'in vitro-translated MDM2 (7–300 amino acids)'; also called TAP-tagged MDM2; MDM2 (7–300 amino acids); source: in vitro translated (wheat germ cell-free translation system); immobilised on IgG beads for the pull-down
T4 sequence (Q00987 7-300): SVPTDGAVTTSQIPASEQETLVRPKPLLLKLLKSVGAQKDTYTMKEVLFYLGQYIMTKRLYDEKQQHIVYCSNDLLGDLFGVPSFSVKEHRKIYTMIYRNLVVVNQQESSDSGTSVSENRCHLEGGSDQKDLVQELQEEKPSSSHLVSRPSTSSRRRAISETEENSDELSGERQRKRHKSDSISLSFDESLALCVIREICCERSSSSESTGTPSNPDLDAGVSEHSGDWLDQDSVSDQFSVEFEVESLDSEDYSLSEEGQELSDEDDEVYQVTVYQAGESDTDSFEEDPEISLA

Molecule	IC50 (MDM2-p53 interaction) [nM]	IC50 [3] [nM]	also measured
GFP-MIP: GFP-fused MIP (PRFWEYWLRLME; also: GFP-fused, end not given here)			proliferation of cells expressing the GFP-fused peptide (HCT116-p53+/+ cells): not inhibited; p53 and its targets (MDM2 and p21) at the protein level [1]: not; MDM2 and p21 at the mRNA level ([2]; quantitative RT-PCR): increased; p53 mRNA level ([2]; quantitative RT-PCR): no effect; p53 and its targets (MDM2 and p21) at the protein level ([2]; western blot): increase
LTAEHYAAQATS [3A, reference compound]	> 100000		IC50 (MDMX-p53 interaction): > 100000 nM
PRFWEAWLRLME [MIP (Y6A)]	> 100000		
PRFWEYALRLME [MIP (W7A)]	> 100000		
PRFWEYWLRLME (12-mer selected by mRNA display from a partially randomized library; also called X12-1; source: synthetic peptide) [MIP (MDM2 Inhibitory Peptide), synthetic peptide]		10	IC50 (MDMX (1–200 amino acids)): 120 nM
PRAWEYWLRLME (MIP with Phe3 replaced by Ala; source: synthetic peptide) [MIP (F3A), synthetic peptide]		570	
PRFWEYWLRAME (MIP with Leu10 replaced by Ala; source: synthetic peptide) [MIP (L10A), synthetic peptide]		1140	
PRFWEYWLRLAE (MIP with Met11 replaced by Ala; source: synthetic peptide) [MIP (M11A), synthetic peptide]		400	
PRFWEYWLALME (MIP with Arg9 replaced by Ala; source: synthetic peptide) [MIP (R9A), synthetic peptide]		20	
